Reference: patent publication US10525100B2, “ATF5 peptide variants and uses thereof” (Sapience Therapeutics, Inc., priority 2018, dated 2020)
Ends that are not written are not given here.

Tests used:
HL60 cells = assay: HL60 cell viability assay (Annexin V FITC / PI flow cytometry); assay type: cell-based, human; conditions: for EC50: 48 h; for cytotoxic activity compared with another peptide: HL60 cell viability, FIGS. 2-5, in words
Description: HL60 PML suspension cells were set at a density of 3.5×10^3 cells/well in 150 μL of RPMI+1.5% fetal bovine serum (FBS) in a 96 well dish. ST-3, reconstituted at a concentration of 10 mg/mL in 20 mM His, pH 7.5, was added to each well at a volume of 50 μL to a final concentration range of 0-80 μM. Cells were incubated with ST-3 for 48 hours at 37° C. Cell viability was quantified by flow cytometry using an Abcam Annexin V FITC apoptosis detection kit. Briefly, cells were washed with PBS and resuspended in 1× assay buffer containing Annexin V FITC and propidium iodide (PI). Annexin V detects apoptotic cells, and PI stains dead cells. After staining, apoptotic cells show green fluorescence, dead cells show red and green fluorescence, and live cells show little or no fluorescence. Cells were selected for analysis based on forward scatter (FSC) vs. side scatter (SSC), and analyzed by BD Accuri C6 Plus flow cytometer to detect Annexin V-FITC binding (Ex=488 nm; Em=530 nm) using FITC signal detector and PI staining by the phycoerythrin emission signal detector. Percentage of Annexin V^low and PI^low were quantified and presented as % Viability.
Lyophilized ST-3 or ST-3 with glycine (ST-4) or alanine (ST-5) substituted for cysteine at amino acid position 21 was freshly reconstituted in histidine buffer to a stock solution of 5 mg/mL and added to cells at a final concentration range of 0-40 μM. Cells were incubated with ATF5 peptide for 48 hours prior to quantification of cell viability.
(§1) ST-13 was further examined in various human cancer cell lines, as was a second retro-inverso variant, ST-14. Suspension cells (HL60, AML14, or SET2) were set at a density of 3.5×10^3 cells/well in 150 μL of RPMI+1.5% fetal bovine serum (FBS) in a tissue culture-treated 96 well dish. ATF5 peptide, reconstituted at a concentration of 10 mg/mL in 20 mM His, pH 7.5, was added to each well at a volume of 50 μL to a final concentration range of 0-80 μM. Cells were incubated with peptide for 48 hours at 37° C. Cell viability was quantified by flow cytometry using an Abcam Annexin V FITC apoptosis detection kit. Briefly, cells were washed with PBS and resuspended in 1× assay buffer containing Annexin V FITC and propidium iodide (PI). Cells were analyzed by BD Accuri C6 Plus flow cytometer to detect Annexin V-FITC binding (Ex=488 nm; Em=530 nm) using FITC signal detector, and to detect PI staining using the phycoerythrin emission signal detector. Percentage of Annexin V^low and PI^low were quantified and presented as % Viability. EC50 values were calculated using GraphPad Prism v.7 XML.

A375 cells = assay type: cell-based, human
Description: (§2) Additionally, adherent A375, MCF7, U251, DU145, U87, and A549 cells were set at a density of 3.5×10^3 cells/well in 200 μL of media on day −1. On day 0, media was removed and replenished with 150 μL of fresh media, and cells were treated with ATF5 peptide as described. Following a 48-hour incubation at 37° C., floating cells were collected, adherent cells were washed with Dulbecco's Phosphate Buffered Saline (DPBS), dissociated from the dish with 50 μL 2.5% trypsin at RT, and combined with floating cells. Cell viability was determined as described above for suspension cells or by MTT assay (MCF7 cells). Alternatively, cells were gently removed from the cell culture plate following trypsinization with 2.5% trypsin, and cell viability was quantified by flow cytometry using an Abcam Annexin V FITC apoptosis detection kit, as described above.

[1] = tested on: wide range of tumor cell types; assay: Cytotoxic activity in various human cancer cell lines; assay type: cell-based; conditions: in words; FIGS. 6A-6E, 7A-7E
Description: as §1, with “Briefly, cells were washed with PBS and resuspended in 1× assay buffer containing Annexin V FITC and propidium iodide (PI).” left out, “XML. […] Cell viability was determined as described above for suspension cells or by MTT assay (MCF7 cells). Alternatively, cells were gently removed from the cell culture plate following trypsinization with 2.5% trypsin, and cell viability was quantified by flow cytometry using an Abcam Annexin V FITC apoptosis detection kit, as described above.” for “XML.”

MCF7 cells = assay type: cell-based, human
Description: as §2

SET2 cells = assay type: cell-based, human
Description: as §1

AML14 cells = assay type: cell-based, human
Description: as §1

In the case of CC[C@@H](C)[C@@H](NC(=O)[C@@H](CCCCN)NC(=O)[C@H](NC(=O)[C@@H](Cc1c[nH]c2ccccc12)NC(=O)[C@@H](Cc1ccccc1)NC(=O)[C@@H](CCC(N)=O)NC(=O)[C@@H](CC(N)=O)NC(=O)[C@@H](CCCNC(=N)N)NC(=O)[C@@H](CCCNC(=N)N)NC(=O)[C@@H](CCSC)NC(=O)[C@@H](CCCCN)NC(=O)[C@@H](Cc1c[nH]c2ccccc12)NC(=O)[C@@H](CCCCN)NC(=O)[C@@H](CCCCN)NC(=O)[C@@H](CC(C)C)NC(=O)[C@@H](CCC(=O)O)NC(=O)CNC(=O)[C@@H](CCCNC(=N)N)NC(=O)[C@@H](C)NC(=O)[C@@H](CCC(N)=O)NC(=O)CNC(=O)[C@@H](CC(C)C)NC(=O)[C@@H](CCCNC(=N)N)NC(=O)[C@@H](C)NC(=O)[C@@H](CCC(=O)O)NC(=O)[C@@H](CC(C)C)NC(=O)[C@@H](CCCNC(=N)N)NC(=O)[C@@H](CCC(=O)O)NC(=O)[C@@H](CC(C)C)NC(=O)[C@@H](CCC(=O)O)NC(=O)[C@@H](CCC(=O)O)NC(=O)[C@@H](CCCNC(=N)N)NC(=O)[C@@H](C)NC(=O)[C@@H](CCC(=O)O)NC(=O)[C@@H](C)NC(=O)[C@H](N)C(C)C)[C@H](C)CC)C(=O)N[C@H](CCC(N)=O)C(=O)N[C@H](CCCNC(=N)N)C(=O)O [ST-13], the EC50 (HL60 cells) is reported as 4.8 µM, the EC50 (A375 cells) is reported as 1.4 µM and the “cytotoxic activity in tumor cell types” value [1] is reported as “significant cytotoxic activity”.

In the case of “RQIKIWFQNRRMKWKKLEGEAQGLEARNRELKERAESV [ST-5]”, the EC50 (HL60 cells) is reported as roughly 38 µM and the “cytotoxic activity compared with another peptide” value (HL60 cells) is reported as “attenuated but not ablated”.

With “RQIKIWFQNRRMKWKKLEGECQGLEARNRELKERAEAV [ST-6]” the EC50 (HL60 cells) was 11.2 µM and the “cytotoxic activity compared with another peptide” value (HL60 cells) was “comparable activity to ST-3”.

Work on “RQIKIWFQNRRMKWKKLEGECQGLEARNRELKERAESV [ST-3, reference compound]” yielded an EC50 (A375 cells) of 21.8 µM, an EC50 (MCF7 cells) of 52.9 µM and an EC50 (SET2 cells) of 98.2 µM. For the same compound, the EC50 (AML14 cells) was 29.6 µM.

“RQIKIWFQNRRMKWKKLEGEGQGLEARNRELKERAESV [ST-4]” was tested, and the EC50 (HL60 cells) was roughly 35 µM and the “cytotoxic activity compared with another peptide” value (HL60 cells) was “attenuated but not ablated”.

For “RQIKIWFQNRRMKWKKLEGRAQGLRAELRELEERAEAV [ST-11]”, the EC50 (HL60 cells) was 4.2 µM and the “cytotoxic activity compared with another peptide” value (HL60 cells) was “improved cytotoxic activity over ST-3”.

For “RQIKIWFQNRRMKWKKLEGRCQGLRAELRELEERAEAV [ST-10]”, the EC50 (HL60 cells) was 2.2 µM and the “cytotoxic activity compared with another peptide” value (HL60 cells) was “comparable to that of ST-9”.

With “RQIKIWFQNRRMKWKKLEGRCQGLRAENRELEERAESV [ST-9]” the EC50 (HL60 cells) was 2 µM and the “cytotoxic activity compared with another peptide” value (HL60 cells) was “significantly increased over that of ST-3”.
